Experimental data published in the kinase profiling compilation of Christmann-Franck et al. (2016).

Biological target: MARK1 (human) (UniProt Q9P0L2)
Test: KINOMEscan competition binding
Conditions: compound 10.0 µM

MARK1 (human), sequence (Q9P0L2 whole entry, looked up): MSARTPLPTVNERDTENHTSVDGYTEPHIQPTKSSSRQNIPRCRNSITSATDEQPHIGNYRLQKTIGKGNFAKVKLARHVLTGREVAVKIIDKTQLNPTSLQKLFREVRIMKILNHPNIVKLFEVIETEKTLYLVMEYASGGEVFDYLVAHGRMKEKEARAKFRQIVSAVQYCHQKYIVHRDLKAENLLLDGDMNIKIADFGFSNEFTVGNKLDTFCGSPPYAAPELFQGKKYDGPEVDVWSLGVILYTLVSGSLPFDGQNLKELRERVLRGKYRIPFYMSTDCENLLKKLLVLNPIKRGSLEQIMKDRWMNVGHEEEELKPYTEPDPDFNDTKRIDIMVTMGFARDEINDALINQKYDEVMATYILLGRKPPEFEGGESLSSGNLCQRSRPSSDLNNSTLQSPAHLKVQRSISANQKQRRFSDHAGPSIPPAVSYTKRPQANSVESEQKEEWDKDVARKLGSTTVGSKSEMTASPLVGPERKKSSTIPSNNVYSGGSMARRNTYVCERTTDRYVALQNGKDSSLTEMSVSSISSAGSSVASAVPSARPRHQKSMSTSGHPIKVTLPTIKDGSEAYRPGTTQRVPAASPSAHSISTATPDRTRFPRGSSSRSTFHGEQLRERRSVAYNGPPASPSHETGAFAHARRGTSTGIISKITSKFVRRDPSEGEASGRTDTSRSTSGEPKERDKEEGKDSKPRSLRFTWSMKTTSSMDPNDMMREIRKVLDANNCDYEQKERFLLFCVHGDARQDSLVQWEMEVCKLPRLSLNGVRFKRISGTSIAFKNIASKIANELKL

| SMILES | kinase still bound, per cent of control [%] |
| --- | --- |
| CCN1CCN(Cc2ccc(NC(=O)c3ccc(C)c(/C=C/c4cnc(Nc5cc(N6CCNCC6)nc(C)n5)cn4)c3)cc2C(F)(F)F)CC1 | 100 |
| COc1cc(N2CCC(N3CCN(C)CC3)CC2)ccc1Nc1ncc(Cl)c(Nc2ccccc2S(=O)(=O)C(C)C)n1 | 0 |
| CCOc1cc(N2CCC(N3CCCCC3)CC2)ccc1Nc1nc(Nc2ccccc2S(=O)(=O)C(C)C)c2cn[nH]c2n1 | 100 |

Biological target: PRKAA1 (human) (UniProt Q13131)
Test: KINOMEscan competition binding
Conditions: compound 10.0 µM

PRKAA1 (human), sequence (Q13131 whole entry, looked up): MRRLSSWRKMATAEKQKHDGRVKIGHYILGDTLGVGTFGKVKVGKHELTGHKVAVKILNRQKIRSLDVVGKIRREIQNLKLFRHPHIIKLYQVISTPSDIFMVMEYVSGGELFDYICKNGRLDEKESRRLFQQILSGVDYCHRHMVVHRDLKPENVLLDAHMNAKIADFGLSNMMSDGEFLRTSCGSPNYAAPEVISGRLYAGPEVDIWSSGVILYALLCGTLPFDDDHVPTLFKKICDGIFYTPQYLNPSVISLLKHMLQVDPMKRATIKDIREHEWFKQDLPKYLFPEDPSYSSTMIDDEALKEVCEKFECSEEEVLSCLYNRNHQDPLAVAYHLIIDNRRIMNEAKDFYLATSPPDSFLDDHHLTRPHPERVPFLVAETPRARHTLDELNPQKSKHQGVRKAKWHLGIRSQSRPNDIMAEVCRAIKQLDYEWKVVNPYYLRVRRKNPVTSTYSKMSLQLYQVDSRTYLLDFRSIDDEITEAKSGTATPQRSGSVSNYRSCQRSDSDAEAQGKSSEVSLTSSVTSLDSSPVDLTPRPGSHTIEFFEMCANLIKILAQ

| SMILES | kinase still bound, per cent of control [%] |
| --- | --- |
| CCN1CCN(Cc2ccc(NC(=O)c3ccc(C)c(/C=C/c4cnc(Nc5cc(N6CCNCC6)nc(C)n5)cn4)c3)cc2C(F)(F)F)CC1 | 18 |
| COc1cc(N2CCC(N3CCN(C)CC3)CC2)ccc1Nc1ncc(Cl)c(Nc2ccccc2S(=O)(=O)C(C)C)n1 | 0.1 |
| CCOc1cc(N2CCC(N3CCCCC3)CC2)ccc1Nc1nc(Nc2ccccc2S(=O)(=O)C(C)C)c2cn[nH]c2n1 | 51 |
| CCN1CCN(Cc2ccc(NC(=O)c3ccc(C)c(Oc4ccnc5[nH]ccc45)c3)cc2C(F)(F)F)CC1 | 33 |

Biological target: PKN2 (human) (UniProt Q16513)
Test: KINOMEscan competition binding
Conditions: compound 10.0 µM

| SMILES | kinase still bound, per cent of control [%] |
| --- | --- |
| CCN1CCN(Cc2ccc(NC(=O)c3ccc(C)c(/C=C/c4cnc(Nc5cc(N6CCNCC6)nc(C)n5)cn4)c3)cc2C(F)(F)F)CC1 | 100 |
| COc1cc(N2CCC(N3CCN(C)CC3)CC2)ccc1Nc1ncc(Cl)c(Nc2ccccc2S(=O)(=O)C(C)C)n1 | 3.2 |
| CCOc1cc(N2CCC(N3CCCCC3)CC2)ccc1Nc1nc(Nc2ccccc2S(=O)(=O)C(C)C)c2cn[nH]c2n1 | 100 |

Biological target: MAPK3 (human) (UniProt P27361)
Test: KINOMEscan competition binding
Conditions: compound 10.0 µM

| SMILES | kinase still bound, per cent of control [%] |
| --- | --- |
| CCN1CCN(Cc2ccc(NC(=O)c3ccc(C)c(/C=C/c4cnc(Nc5cc(N6CCNCC6)nc(C)n5)cn4)c3)cc2C(F)(F)F)CC1 | 94 |
| COc1cc(N2CCC(N3CCN(C)CC3)CC2)ccc1Nc1ncc(Cl)c(Nc2ccccc2S(=O)(=O)C(C)C)n1 | 0.1 |
| CCOc1cc(N2CCC(N3CCCCC3)CC2)ccc1Nc1nc(Nc2ccccc2S(=O)(=O)C(C)C)c2cn[nH]c2n1 | 0.75 |

Biological target: AURKC (human) (UniProt Q9UQB9)
Test: KINOMEscan competition binding
Conditions: compound 10.0 µM

AURKC (human), sequence (Q9UQB9 whole entry, looked up): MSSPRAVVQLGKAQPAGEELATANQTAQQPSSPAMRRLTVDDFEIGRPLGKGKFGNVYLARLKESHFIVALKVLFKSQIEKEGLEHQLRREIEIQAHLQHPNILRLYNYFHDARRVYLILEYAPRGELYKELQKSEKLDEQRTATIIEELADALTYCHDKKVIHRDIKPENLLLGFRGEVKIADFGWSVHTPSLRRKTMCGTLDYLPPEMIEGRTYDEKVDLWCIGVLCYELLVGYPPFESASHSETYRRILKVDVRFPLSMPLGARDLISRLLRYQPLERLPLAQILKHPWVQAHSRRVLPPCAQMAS

| SMILES | kinase still bound, per cent of control [%] |
| --- | --- |
| CCN1CCN(Cc2ccc(NC(=O)c3ccc(C)c(/C=C/c4cnc(Nc5cc(N6CCNCC6)nc(C)n5)cn4)c3)cc2C(F)(F)F)CC1 | 45 |
| COc1cc(N2CCC(N3CCN(C)CC3)CC2)ccc1Nc1ncc(Cl)c(Nc2ccccc2S(=O)(=O)C(C)C)n1 | 0.1 |
| CCOc1cc(N2CCC(N3CCCCC3)CC2)ccc1Nc1nc(Nc2ccccc2S(=O)(=O)C(C)C)c2cn[nH]c2n1 | 100 |

Biological target: JAK1 JH1 catalytic (human) (UniProt P23458)
Test: KINOMEscan competition binding
Conditions: compound 10.0 µM

JAK1 JH1 catalytic (human), sequence (P23458 whole entry, looked up): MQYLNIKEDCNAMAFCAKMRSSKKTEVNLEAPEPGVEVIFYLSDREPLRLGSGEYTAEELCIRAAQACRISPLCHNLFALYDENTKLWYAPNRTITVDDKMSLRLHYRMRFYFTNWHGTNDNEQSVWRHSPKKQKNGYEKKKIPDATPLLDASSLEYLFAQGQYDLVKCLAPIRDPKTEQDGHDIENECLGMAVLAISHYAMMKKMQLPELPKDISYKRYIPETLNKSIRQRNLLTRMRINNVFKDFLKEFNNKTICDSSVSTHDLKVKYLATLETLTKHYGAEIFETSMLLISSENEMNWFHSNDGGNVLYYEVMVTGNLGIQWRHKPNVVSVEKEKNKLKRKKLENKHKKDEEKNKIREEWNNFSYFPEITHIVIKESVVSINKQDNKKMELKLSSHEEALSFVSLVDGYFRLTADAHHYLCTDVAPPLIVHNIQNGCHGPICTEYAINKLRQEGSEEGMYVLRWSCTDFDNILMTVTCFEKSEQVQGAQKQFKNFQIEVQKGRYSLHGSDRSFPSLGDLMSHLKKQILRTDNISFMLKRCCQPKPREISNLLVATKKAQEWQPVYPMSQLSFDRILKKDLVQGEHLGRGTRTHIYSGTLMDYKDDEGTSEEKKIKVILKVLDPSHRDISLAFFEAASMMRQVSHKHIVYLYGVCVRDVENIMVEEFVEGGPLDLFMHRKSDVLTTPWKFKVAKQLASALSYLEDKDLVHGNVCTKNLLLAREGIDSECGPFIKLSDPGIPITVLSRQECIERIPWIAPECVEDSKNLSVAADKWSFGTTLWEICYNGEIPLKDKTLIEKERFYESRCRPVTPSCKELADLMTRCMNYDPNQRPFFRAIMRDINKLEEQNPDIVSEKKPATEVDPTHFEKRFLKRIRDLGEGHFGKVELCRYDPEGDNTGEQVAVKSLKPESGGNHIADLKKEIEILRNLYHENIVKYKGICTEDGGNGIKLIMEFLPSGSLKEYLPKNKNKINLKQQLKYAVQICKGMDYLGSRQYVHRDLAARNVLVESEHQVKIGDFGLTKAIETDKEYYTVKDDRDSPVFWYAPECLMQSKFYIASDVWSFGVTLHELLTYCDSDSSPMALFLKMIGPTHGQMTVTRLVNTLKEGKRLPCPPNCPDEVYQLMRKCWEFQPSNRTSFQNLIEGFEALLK

| SMILES | kinase still bound, per cent of control [%] |
| --- | --- |
| CCN1CCN(Cc2ccc(NC(=O)c3ccc(C)c(/C=C/c4cnc(Nc5cc(N6CCNCC6)nc(C)n5)cn4)c3)cc2C(F)(F)F)CC1 | 80 |
| COc1cc(N2CCC(N3CCN(C)CC3)CC2)ccc1Nc1ncc(Cl)c(Nc2ccccc2S(=O)(=O)C(C)C)n1 | 4.7 |
| CCOc1cc(N2CCC(N3CCCCC3)CC2)ccc1Nc1nc(Nc2ccccc2S(=O)(=O)C(C)C)c2cn[nH]c2n1 | 100 |

Biological target: PIK3CD (human) (UniProt O00329)
Test: KINOMEscan competition binding
Conditions: compound 10.0 µM

PIK3CD (human), sequence (O00329 whole entry, looked up): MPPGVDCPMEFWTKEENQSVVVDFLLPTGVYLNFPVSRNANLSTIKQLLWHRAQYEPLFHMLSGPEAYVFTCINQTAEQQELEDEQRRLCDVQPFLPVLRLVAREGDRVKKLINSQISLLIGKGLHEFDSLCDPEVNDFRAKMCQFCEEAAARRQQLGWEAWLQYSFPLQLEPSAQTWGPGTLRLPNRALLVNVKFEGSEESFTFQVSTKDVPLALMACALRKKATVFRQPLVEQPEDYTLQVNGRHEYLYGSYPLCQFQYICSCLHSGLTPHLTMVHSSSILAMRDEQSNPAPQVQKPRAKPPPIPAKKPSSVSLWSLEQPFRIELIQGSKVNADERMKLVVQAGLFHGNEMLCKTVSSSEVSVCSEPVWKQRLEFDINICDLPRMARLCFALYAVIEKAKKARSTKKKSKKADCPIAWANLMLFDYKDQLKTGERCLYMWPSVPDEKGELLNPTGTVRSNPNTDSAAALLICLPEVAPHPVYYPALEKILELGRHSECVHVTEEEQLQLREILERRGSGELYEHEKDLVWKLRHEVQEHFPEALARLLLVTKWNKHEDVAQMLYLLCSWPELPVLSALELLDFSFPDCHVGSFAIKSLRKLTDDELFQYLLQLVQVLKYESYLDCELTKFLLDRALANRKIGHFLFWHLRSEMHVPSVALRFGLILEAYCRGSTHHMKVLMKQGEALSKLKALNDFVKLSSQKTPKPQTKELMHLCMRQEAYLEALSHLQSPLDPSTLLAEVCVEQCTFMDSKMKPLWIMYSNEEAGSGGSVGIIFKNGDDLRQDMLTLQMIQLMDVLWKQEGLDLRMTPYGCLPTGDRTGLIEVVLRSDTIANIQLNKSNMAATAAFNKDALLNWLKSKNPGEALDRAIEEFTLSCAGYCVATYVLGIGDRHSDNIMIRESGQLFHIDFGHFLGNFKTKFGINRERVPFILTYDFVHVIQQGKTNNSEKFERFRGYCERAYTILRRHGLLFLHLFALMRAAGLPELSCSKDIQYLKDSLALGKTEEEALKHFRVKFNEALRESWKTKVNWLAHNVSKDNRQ

| SMILES | kinase still bound, per cent of control [%] |
| --- | --- |
| CCN1CCN(Cc2ccc(NC(=O)c3ccc(C)c(/C=C/c4cnc(Nc5cc(N6CCNCC6)nc(C)n5)cn4)c3)cc2C(F)(F)F)CC1 | 50 |
| COc1cc(N2CCC(N3CCN(C)CC3)CC2)ccc1Nc1ncc(Cl)c(Nc2ccccc2S(=O)(=O)C(C)C)n1 | 40 |
| CCOc1cc(N2CCC(N3CCCCC3)CC2)ccc1Nc1nc(Nc2ccccc2S(=O)(=O)C(C)C)c2cn[nH]c2n1 | 100 |

Biological target: CDK16 (human) (UniProt Q00536)
Test: KINOMEscan competition binding
Conditions: compound 10.0 µM

CDK16 (human), sequence (Q00536 whole entry, looked up): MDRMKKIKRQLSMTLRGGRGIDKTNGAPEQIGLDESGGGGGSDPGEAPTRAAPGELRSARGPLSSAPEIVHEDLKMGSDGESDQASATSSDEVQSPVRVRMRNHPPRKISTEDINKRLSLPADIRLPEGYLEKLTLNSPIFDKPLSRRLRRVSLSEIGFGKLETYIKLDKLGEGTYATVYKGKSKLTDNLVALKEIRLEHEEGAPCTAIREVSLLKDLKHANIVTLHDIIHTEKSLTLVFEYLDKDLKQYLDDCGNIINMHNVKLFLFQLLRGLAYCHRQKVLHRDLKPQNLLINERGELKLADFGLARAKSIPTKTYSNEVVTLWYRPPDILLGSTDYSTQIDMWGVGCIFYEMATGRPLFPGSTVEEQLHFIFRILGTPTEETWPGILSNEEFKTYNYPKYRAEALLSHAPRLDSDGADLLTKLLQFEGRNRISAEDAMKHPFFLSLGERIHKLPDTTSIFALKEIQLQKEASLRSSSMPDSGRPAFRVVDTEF

| SMILES | kinase still bound, per cent of control [%] |
| --- | --- |
| CCN1CCN(Cc2ccc(NC(=O)c3ccc(C)c(/C=C/c4cnc(Nc5cc(N6CCNCC6)nc(C)n5)cn4)c3)cc2C(F)(F)F)CC1 | 60 |
| CCOc1cc(N2CCC(N3CCCCC3)CC2)ccc1Nc1nc(Nc2ccccc2S(=O)(=O)C(C)C)c2cn[nH]c2n1 | 98 |
| CCN1CCN(Cc2ccc(NC(=O)c3ccc(C)c(Oc4ccnc5[nH]ccc45)c3)cc2C(F)(F)F)CC1 | 11 |

Biological target: NLK (human) (UniProt Q9UBE8)
Test: KINOMEscan competition binding
Conditions: compound 10.0 µM

| SMILES | kinase still bound, per cent of control [%] |
| --- | --- |
| CCN1CCN(Cc2ccc(NC(=O)c3ccc(C)c(/C=C/c4cnc(Nc5cc(N6CCNCC6)nc(C)n5)cn4)c3)cc2C(F)(F)F)CC1 | 65 |
| COc1cc(N2CCC(N3CCN(C)CC3)CC2)ccc1Nc1ncc(Cl)c(Nc2ccccc2S(=O)(=O)C(C)C)n1 | 40 |
| CCOc1cc(N2CCC(N3CCCCC3)CC2)ccc1Nc1nc(Nc2ccccc2S(=O)(=O)C(C)C)c2cn[nH]c2n1 | 97 |
| CCN1CCN(Cc2ccc(NC(=O)c3ccc(C)c(Oc4ccnc5[nH]ccc45)c3)cc2C(F)(F)F)CC1 | 14 |

Biological target: MAPKAPK5 (human) (UniProt Q8IW41)
Test: KINOMEscan competition binding
Conditions: compound 10.0 µM

MAPKAPK5 (human), sequence (Q8IW41 whole entry, looked up): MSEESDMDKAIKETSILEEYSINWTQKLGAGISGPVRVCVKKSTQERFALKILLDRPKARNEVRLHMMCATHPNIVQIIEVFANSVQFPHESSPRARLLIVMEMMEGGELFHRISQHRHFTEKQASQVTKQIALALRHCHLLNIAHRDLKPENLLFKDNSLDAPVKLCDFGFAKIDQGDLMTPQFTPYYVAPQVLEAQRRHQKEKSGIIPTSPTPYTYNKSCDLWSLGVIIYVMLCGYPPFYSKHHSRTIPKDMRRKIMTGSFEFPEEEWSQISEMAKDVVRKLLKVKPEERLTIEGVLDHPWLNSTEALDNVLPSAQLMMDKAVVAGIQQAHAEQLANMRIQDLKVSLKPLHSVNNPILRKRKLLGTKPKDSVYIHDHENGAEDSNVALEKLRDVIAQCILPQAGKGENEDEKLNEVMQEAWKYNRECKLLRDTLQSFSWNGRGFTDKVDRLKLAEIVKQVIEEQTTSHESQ

| SMILES | kinase still bound, per cent of control [%] |
| --- | --- |
| CCN1CCN(Cc2ccc(NC(=O)c3ccc(C)c(/C=C/c4cnc(Nc5cc(N6CCNCC6)nc(C)n5)cn4)c3)cc2C(F)(F)F)CC1 | 80 |
| COc1cc(N2CCC(N3CCN(C)CC3)CC2)ccc1Nc1ncc(Cl)c(Nc2ccccc2S(=O)(=O)C(C)C)n1 | 40 |
| CCOc1cc(N2CCC(N3CCCCC3)CC2)ccc1Nc1nc(Nc2ccccc2S(=O)(=O)C(C)C)c2cn[nH]c2n1 | 100 |

Biological target: TYK2 JH1 catalytic (human) (UniProt P29597)
Test: KINOMEscan competition binding
Conditions: compound 10.0 µM

| SMILES | kinase still bound, per cent of control [%] |
| --- | --- |
| CCN1CCN(Cc2ccc(NC(=O)c3ccc(C)c(/C=C/c4cnc(Nc5cc(N6CCNCC6)nc(C)n5)cn4)c3)cc2C(F)(F)F)CC1 | 29 |
| COc1cc(N2CCC(N3CCN(C)CC3)CC2)ccc1Nc1ncc(Cl)c(Nc2ccccc2S(=O)(=O)C(C)C)n1 | 0.45 |
| CCOc1cc(N2CCC(N3CCCCC3)CC2)ccc1Nc1nc(Nc2ccccc2S(=O)(=O)C(C)C)c2cn[nH]c2n1 | 87 |
